Measured values reported in BindingDB's records for patent US20250109139 (Shanghaitech University, 2025).

Target: D(2) dopamine receptor (Homo sapiens, UniProt P14416)
Test: Radioligand Competition Binding Assay
Method: A 10 cm culture dish was used for transfection with […] of dopamine D2 receptors and 40 μL of polyethylenimine (PEI hereafter). […] A vacuum pump was used to suck off the culture medium, 3 mL of lysis buffer was added to each culture dish, and the cells were placed in a 4° C. cold room for 10 minutes. After the cells were detached, the cells were transferred to a 15 mL centrifuge tube and centrifuged at 1500 rpm for 5 minutes at 4° C., and the supernatant was discarded. The cell pellet was transferred to a tissue homogenizer, and 3 mL of lysis buffer was added and fully ground until the cells were broken. Then, cell suspension was equally aliquoted into several EP tubes, centrifuged at 12000 rpm for 5 minutes at 4° C., and the supernatant was discarded. […] First, a standard binding buffer was added to the cell membrane component containing the dopamine D2 receptors, and the cell membrane was disrupted and resuspended with an electric tissue homogenizer. 30 μL of membrane protein suspension was added to each well of a 96-well plate. […] Next, 30 μL of [3H]-Methylspiperone was added to each well of the 96-well plate. […] The machine readout value reflected the amount of [3H]-Methylspiperone bound on the membrane, and after further data processing, the affinity Ki values of different compounds for the dopamine D2 receptors were obtained.

Chain of D(2) dopamine receptor (P14416 whole entry): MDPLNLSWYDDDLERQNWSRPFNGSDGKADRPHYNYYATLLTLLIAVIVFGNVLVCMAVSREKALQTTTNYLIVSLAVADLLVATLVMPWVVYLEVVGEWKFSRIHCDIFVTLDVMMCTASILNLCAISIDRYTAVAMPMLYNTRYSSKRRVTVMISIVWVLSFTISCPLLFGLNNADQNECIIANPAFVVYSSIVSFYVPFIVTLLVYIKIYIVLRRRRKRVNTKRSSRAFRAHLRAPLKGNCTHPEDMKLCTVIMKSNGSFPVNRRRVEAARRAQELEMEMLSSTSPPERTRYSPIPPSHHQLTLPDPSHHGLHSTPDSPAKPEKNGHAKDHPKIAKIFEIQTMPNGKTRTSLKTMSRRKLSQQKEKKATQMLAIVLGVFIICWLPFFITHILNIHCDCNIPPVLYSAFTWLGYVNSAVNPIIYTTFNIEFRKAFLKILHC

CCOc1cccc2c3c(oc12)CN(CCCCc1ccc2ccc(=O)[nH]c2c1)CC3 [US20250109139, Compound I-A25]
Ki: 0.038 µM
